A short description of data set [1]: Fluorescence intensity of TAMRA-labeled peptides at different pH / buffers. Type of data set: physicochemical. Conditions: 0.2 µM peptide; for fluorescence intensity in Tris buffer pH 8: 50 mM Tris pH 8, λex 544/λem 590 nm, mean ± SD.
The nature of data set [2]: Fluorescence intensity of TAMRA-labeled peptides with detergents. Format: physicochemical. Conditions: 0.2 µM peptide, 50 mM Tris pH 8 + 0.1% (w/v) SDS, no cells, λex 544/λem 590 nm.

As for “^*-GALFLGWLGAAGSTMGAWSQPKKKRKV-ANSRWPTSII [*MPG-iCAL36]”, in data set [1], the “decrease of fluorescence intensity, citric acid versus Tris buffer, both pH 8” value is reported as 36% and the “fluorescence intensity in Tris buffer pH 8” value is reported as 68,132 ± 5,731. Besides, the “increase of fluorescence intensity in Tris+SDS compared to Tris buffer alone” value in data set [2] was 7 ×.

Regarding “^*-GRKKRRQRRRPPQ-ANSRWPTSII [*Tat-iCAL36]”, the “fluorescence intensity in Tris buffer pH 8” value in data set [1] is reported as 103,693 ± 2,848. For the substance “^*-LLRLLRWWWRLLRLL-ANSRWPTSII [*WRAP5-iCAL36]”, in data set [2], the “increase of fluorescence intensity in Tris+SDS compared to Tris buffer alone” value is given as 15 ×. On the same count and under the same terms, the same measure for “^*-RLWRLLWRLWRRLWRLLR-ANSRWPTSII [*C6M1-iCAL36]”: 9 ×.
